Reference: ChEMBL document CHEMBL1629553, “Antimalarial activity of a new stilbene glycoside from Parthenocissus tricuspidata in mice” (Antimicrob Agents Chemother, 2008)
Active and inactive are the calls of the source. No cut-off for these calls is given here.

What was measured:
[1] = test system: Plasmodium berghei; assay: Antimalarial activity against chloroquine-sensitive Plasmodium berghei ATCC 50175 infected in ICR mouse assessed as chemosuppression of parasitemia at 1.2 mg/kg/day, po pretreated for 4 days before infection and measured after 72 hrs; assay type: functional
[2] = test system: Plasmodium berghei; assay: Antimalarial activity against chloroquine-sensitive Plasmodium berghei ATCC 50175 infected in ICR mouse assessed as parasitemia at 1.2 mg/kg/day, po pretreated for 4 days before infection and measured after 72 hrs (reference value: 4.6+/-0.21 %); assay type: functional
[3] = test system: Plasmodium berghei; assay: Antimalarial activity against chloroquine-sensitive Plasmodium berghei ATCC 50175 infected in ICR mouse assessed as chemosuppression of parasitemia at 25 mg/kg/day, po administered 24 hrs post-treatment measured after 4 days; assay type: functional
[4] = test system: Plasmodium berghei; assay: Antimalarial activity against chloroquine-sensitive Plasmodium berghei ATCC 50175 infected in ICR mouse assessed as reduced parasitemia at 25 mg/kg/day, po administered 24 hrs post-treatment for 4 day measured on day 7; assay type: functional; parameters: scale not given: the % may be the effect or the level left
[5] = test system: Plasmodium berghei; assay: Antimalarial activity against chloroquine-sensitive Plasmodium berghei ATCC 50175 infected in ICR mouse assessed as chemosuppression of parasitemia at 25 mg/kg/day, po pretreated for 4 days before infection and measured after 72 hrs; assay type: functional
[6] = test system: Plasmodium berghei; assay: Antimalarial activity against chloroquine-sensitive Plasmodium berghei ATCC 50175 infected in ICR mouse assessed as chemosuppression of parasitemia at 5 mg/kg/day, po pretreated for 4 days before infection and measured after 72 hrs; assay type: functional
[7] = test system: Plasmodium berghei; assay: Antimalarial activity against chloroquine-sensitive Plasmodium berghei ATCC 50175 infected in ICR mouse assessed as chemosuppression of parasitemia at 5 mg/kg/day, po administered 24 hrs post-treatment measured after 4 days; assay type: functional
[8] = test system: Plasmodium berghei; assay: Antimalarial activity against chloroquine-sensitive Plasmodium berghei ATCC 50175 infected in ICR mouse assessed as parasitemia at 10 mg/kg/day, po pretreated for 4 days before infection and measured after 72 hrs (reference value: 4.6+/-0.21 %); assay type: functional
[9] = test system: Plasmodium berghei; assay: Antimalarial activity against chloroquine-sensitive Plasmodium berghei ATCC 50175 infected in ICR mouse assessed as chemosuppression of parasitemia at 10 mg/kg/day, po pretreated for 4 days before infection and measured after 72 hrs; assay type: functional
[10] = test system: Plasmodium berghei; assay: Antimalarial activity against chloroquine-sensitive Plasmodium berghei ATCC 50175 infected in ICR mouse assessed as parasitemia at 25 mg/kg/day, po pretreated for 4 days before infection and measured after 72 hrs (reference value: 4.6+/-0.21 %); assay type: functional
[11] = test system: Plasmodium berghei; assay: Antimalarial activity against chloroquine-sensitive Plasmodium berghei ATCC 50175 infected in ICR mouse assessed as parasitemia at 5 mg/kg/day, po administered 24 hrs post-treatment measured after 4 days (reference value: 56.3+/-0.16 %); assay type: functional
[12] = test system: Plasmodium berghei; assay: Antimalarial activity against chloroquine-sensitive Plasmodium berghei ATCC 50175 infected in ICR mouse assessed as parasitemia at 25 mg/kg/day, po administered 24 hrs post-treatment measured after 4 days (reference value: 56.3+/-0.16 %); assay type: functional
[13] = test system: Mus musculus; assay: Toxicity against chloroquine-sensitive Plasmodium berghei ATCC 50175 infected ICR mouse at 5 to 25 mg/kg, po; assay type: organism-based; parameters: dose 5-25 mg/kg, route oral; details: in vivo
[14] = test system: Plasmodium berghei; assay: Antimalarial activity against chloroquine-sensitive Plasmodium berghei ATCC 50175 infected in ICR mouse assessed as parasitemia at 10 mg/kg/day, po administered 24 hrs post-treatment measured after 4 days (reference value: 56.3+/-0.16 %); assay type: functional
[15] = test system: Plasmodium berghei; assay: Antimalarial activity against chloroquine-sensitive Plasmodium berghei ATCC 50175 infected ICR mouse assessed as increase in mouse survival at 5 to 25 mg/kg/day, po administered 24 hrs post-treatment; assay type: functional
[16] = test system: Plasmodium berghei; assay: Antimalarial activity against chloroquine-sensitive Plasmodium berghei ATCC 50175 infected in ICR mouse assessed as reduced parasitemia at 25 mg/kg/day, po administered 24 hrs post-treatment measured on day 3; assay type: functional; parameters: scale not given: the % may be the effect or the level left
[17] = test system: Plasmodium berghei; assay: Antimalarial activity against chloroquine-sensitive Plasmodium berghei ATCC 50175 infected in ICR mouse assessed as reduced parasitemia at 5 mg/kg/day, po administered 24 hrs post-treatment for 4 day measured on day 7; assay type: functional; parameters: scale not given: the % may be the effect or the level left
[18] = test system: Plasmodium berghei; assay: Antimalarial activity against chloroquine-sensitive Plasmodium berghei ATCC 50175 infected in ICR mouse assessed as parasitemia at 5 mg/kg/day, po pretreated for 4 days before infection and measured after 72 hrs (reference value: 4.6+/-0.21 %); assay type: functional
[19] = test system: Plasmodium berghei; assay: Antimalarial activity against chloroquine-sensitive Plasmodium berghei ATCC 50175 infected in ICR mouse assessed as reduced parasitemia at 10 mg/kg/day, po administered 24 hrs post-treatment for 4 day measured on day 7; assay type: functional; parameters: scale not given: the % may be the effect or the level left
[20] = test system: Plasmodium berghei; assay: Antimalarial activity against chloroquine-sensitive Plasmodium berghei ATCC 50175 infected in ICR mouse assessed as reduced parasitemia at 5 mg/kg/day, po administered 24 hrs post-treatment measured on day 3; assay type: functional; parameters: scale not given: the % may be the effect or the level left
[21] = test system: Plasmodium berghei; assay: Antimalarial activity against chloroquine-sensitive Plasmodium berghei ATCC 50175 infected in ICR mouse assessed as chemosuppression of parasitemia at 10 mg/kg/day, po administered 24 hrs post-treatment measured after 4 days; assay type: functional
[22] = test system: Plasmodium berghei; assay: Antimalarial activity against chloroquine-sensitive Plasmodium berghei ATCC 50175 infected in ICR mouse assessed as reduced parasitemia at 10 mg/kg/day, po administered 24 hrs post-treatment measured on day 3; assay type: functional; parameters: scale not given: the % may be the effect or the level left
[23] = test system: Plasmodium berghei; assay: Antimalarial activity against chloroquine-sensitive Plasmodium berghei ATCC 50175 infected ICR mouse assessed as survival of mouse at 5 mg/kg/day, po for 4 days measured after 30 days; assay type: functional, organism-based
[24] = test system: Plasmodium berghei; assay: Antimalarial activity against chloroquine-sensitive Plasmodium berghei ATCC 50175 infected ICR mouse assessed as survival of mouse at 25 mg/kg/day, po for 4 days measured after 30 days; assay type: functional, organism-based
[25] = test system: Plasmodium berghei; assay: Antimalarial activity against chloroquine-sensitive Plasmodium berghei ATCC 50175 infected ICR mouse assessed as survival of mouse at 5 mg/kg/day, po for 4 days measured after 25 days; assay type: functional, organism-based
[26] = test system: Plasmodium berghei; assay: Antimalarial activity against chloroquine-sensitive Plasmodium berghei ATCC 50175 infected ICR mouse assessed as survival of mouse at 10 mg/kg/day, po for 4 days measured after 27 days; assay type: functional, organism-based

## CCc1nc(N)nc(N)c1-c1ccc(Cl)cc1 [PYRIMETHAMINE]
[1]
  Activity: 91.8%
[2]
  Activity: 4.6%

## OC[C@H]1O[C@@H](OC[C@@H]2O[C@H](Oc3cc(O)cc(/C=C/c4ccc(O)cc4)c3)[C@@H](O)[C@H](O)[C@H]2O)[C@H](O)[C@@H](O)[C@@H]1O
[3]
  Activity: 73.2%
[4]
  Activity: 89.4%
[5]
  Activity: 80.1%
[6]
  Activity: 58.7%
[7]
  Activity: 44.3%
[8]
  Activity: 16.5%
[9]
  Activity: 70.6%
[10]
  Activity: 11.3%
[11]
  Activity: 31.3%
[12]
  Activity: 15.2%
[13]
  Activity: Non-toxic
[14]
  Activity: 22.4%
[15]
  Time: 96 h
[16]
  Activity: 34.37%
[17]
  Activity: 73.6%
[18]
  Activity: 23.2%
[19]
  Activity: 86.3%
[20]
  Activity: 6.25%
[21]
  Activity: 60.2%
[22]
  Activity: 18.75%

## CCN(CC)CCCC(C)Nc1ccnc2cc(Cl)ccc12 (stereo not drawn) [CHLOROQUINE]
[7]
  Activity: 89.3%
[23]
  Activity: Active
[11]
  Activity: 6.2%
[24]
  Activity: Active
[25]
  Activity: Active
[26]
  Activity: Active
